Assay results published in US20260356819A1, “OXOISOINDOLINYL-SUBSTITUTED […] DERIVATIVE AND USE THEREOF” (GLUETACS THERAPEUTICS (SHANGHAI) CO., LTD., priority 2023, published 2026).

Key:
Format in all cases: cell-based
Conditions in all cases: compounds at 50 nM and 500 nM
IKZF2 = molecular target: T1, IKZF2 (Homo sapiens, UniProt Q96SW2+Q9UKS7); assay: Western blot degradation of IKZF2 in hPBMCs (24 h)
T1 construct: The supernatant was aspirated as the extracted total cell protein; endogenous in cells; host or cells: human peripheral blood mononuclear cells (hPBMCs)
How it was run: (§1)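 hPBMCs (1×10^6 cells/mL) were treated with compound at 50 nM and 500 nM for 24 h, lysed in RIPA with protease inhibitors and analysed by SDS-PAGE/Western blot. Band grayscale, normalised to internal control, gave protein remaining (%); DC50 estimated versus DMSO bands.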

IKZF1 = molecular target: T2, IKZF1 (Homo sapiens, UniProt Q13422+Q96SW2); assay: Western blot degradation of IKZF1 in hPBMCs (24 h)
T2 construct: The supernatant was aspirated as the extracted total cell protein; endogenous in cells; host or cells: human peripheral blood mononuclear cells (hPBMCs)
How it was run: as §1

CK1α = molecular target: T3, CK1α (Homo sapiens, UniProt P48729+Q96SW2); assay: Western blot degradation of CK1α in hPBMCs (24 h)
T3 construct: The supernatant was aspirated as the extracted total cell protein; endogenous in cells; host or cells: human peripheral blood mononuclear cells (hPBMCs)
How it was run: as §1

GSPT1 = molecular target: T4, GSPT1 (Homo sapiens, UniProt P15170+Q96SW2); assay: Western blot degradation of GSPT1 in hPBMCs (24 h)
T4 construct: The supernatant was aspirated as the extracted total cell protein; endogenous in cells; host or cells: human peripheral blood mononuclear cells (hPBMCs)
How it was run: as §1

IKZF3 = molecular target: T5, IKZF3 (Homo sapiens, UniProt Q96SW2+Q9UKT9); assay: Western blot degradation of IKZF3 in hPBMCs (24 h)
T5 construct: The supernatant was aspirated as the extracted total cell protein; endogenous in cells; host or cells: human peripheral blood mononuclear cells (hPBMCs)
How it was run: as §1

WEE1 = molecular target: T6, WEE1 (Homo sapiens, UniProt P30291+Q96SW2); assay: Western blot degradation of WEE1 in hPBMCs (24 h)
T6 construct: The supernatant was aspirated as the extracted total cell protein; endogenous in cells; host or cells: human peripheral blood mononuclear cells (hPBMCs)
How it was run: as §1

T6 sequence (P30291 whole entry): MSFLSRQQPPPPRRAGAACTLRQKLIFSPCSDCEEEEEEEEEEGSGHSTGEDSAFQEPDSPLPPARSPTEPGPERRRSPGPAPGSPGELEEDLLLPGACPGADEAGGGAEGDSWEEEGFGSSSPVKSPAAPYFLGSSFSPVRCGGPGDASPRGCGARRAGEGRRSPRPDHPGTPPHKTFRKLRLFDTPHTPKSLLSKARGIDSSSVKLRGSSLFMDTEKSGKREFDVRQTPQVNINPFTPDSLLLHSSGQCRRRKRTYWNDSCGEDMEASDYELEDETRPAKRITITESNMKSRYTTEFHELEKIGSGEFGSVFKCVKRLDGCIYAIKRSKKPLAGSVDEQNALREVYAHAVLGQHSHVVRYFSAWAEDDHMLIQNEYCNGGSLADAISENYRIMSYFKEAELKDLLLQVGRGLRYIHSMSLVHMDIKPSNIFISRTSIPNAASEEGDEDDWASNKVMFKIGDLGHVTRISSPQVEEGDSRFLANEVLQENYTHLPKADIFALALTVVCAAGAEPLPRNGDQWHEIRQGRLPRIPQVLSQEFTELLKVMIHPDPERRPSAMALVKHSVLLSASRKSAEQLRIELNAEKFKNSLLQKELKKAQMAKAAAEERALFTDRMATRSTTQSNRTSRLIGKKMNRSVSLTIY
T6 sequence (Q96SW2 whole entry): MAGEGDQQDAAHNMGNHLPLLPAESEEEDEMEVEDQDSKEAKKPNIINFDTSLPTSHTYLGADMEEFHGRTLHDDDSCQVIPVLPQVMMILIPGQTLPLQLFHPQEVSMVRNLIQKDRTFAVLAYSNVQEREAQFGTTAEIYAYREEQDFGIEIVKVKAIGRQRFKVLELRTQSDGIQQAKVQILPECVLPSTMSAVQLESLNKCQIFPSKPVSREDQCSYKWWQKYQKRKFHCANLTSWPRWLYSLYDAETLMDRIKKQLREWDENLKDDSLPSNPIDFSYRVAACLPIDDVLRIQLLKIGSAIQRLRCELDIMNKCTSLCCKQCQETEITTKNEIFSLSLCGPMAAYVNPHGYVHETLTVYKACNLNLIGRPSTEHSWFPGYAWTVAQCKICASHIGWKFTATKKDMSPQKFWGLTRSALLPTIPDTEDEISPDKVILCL
T6 sequence (Q16531 whole entry partner): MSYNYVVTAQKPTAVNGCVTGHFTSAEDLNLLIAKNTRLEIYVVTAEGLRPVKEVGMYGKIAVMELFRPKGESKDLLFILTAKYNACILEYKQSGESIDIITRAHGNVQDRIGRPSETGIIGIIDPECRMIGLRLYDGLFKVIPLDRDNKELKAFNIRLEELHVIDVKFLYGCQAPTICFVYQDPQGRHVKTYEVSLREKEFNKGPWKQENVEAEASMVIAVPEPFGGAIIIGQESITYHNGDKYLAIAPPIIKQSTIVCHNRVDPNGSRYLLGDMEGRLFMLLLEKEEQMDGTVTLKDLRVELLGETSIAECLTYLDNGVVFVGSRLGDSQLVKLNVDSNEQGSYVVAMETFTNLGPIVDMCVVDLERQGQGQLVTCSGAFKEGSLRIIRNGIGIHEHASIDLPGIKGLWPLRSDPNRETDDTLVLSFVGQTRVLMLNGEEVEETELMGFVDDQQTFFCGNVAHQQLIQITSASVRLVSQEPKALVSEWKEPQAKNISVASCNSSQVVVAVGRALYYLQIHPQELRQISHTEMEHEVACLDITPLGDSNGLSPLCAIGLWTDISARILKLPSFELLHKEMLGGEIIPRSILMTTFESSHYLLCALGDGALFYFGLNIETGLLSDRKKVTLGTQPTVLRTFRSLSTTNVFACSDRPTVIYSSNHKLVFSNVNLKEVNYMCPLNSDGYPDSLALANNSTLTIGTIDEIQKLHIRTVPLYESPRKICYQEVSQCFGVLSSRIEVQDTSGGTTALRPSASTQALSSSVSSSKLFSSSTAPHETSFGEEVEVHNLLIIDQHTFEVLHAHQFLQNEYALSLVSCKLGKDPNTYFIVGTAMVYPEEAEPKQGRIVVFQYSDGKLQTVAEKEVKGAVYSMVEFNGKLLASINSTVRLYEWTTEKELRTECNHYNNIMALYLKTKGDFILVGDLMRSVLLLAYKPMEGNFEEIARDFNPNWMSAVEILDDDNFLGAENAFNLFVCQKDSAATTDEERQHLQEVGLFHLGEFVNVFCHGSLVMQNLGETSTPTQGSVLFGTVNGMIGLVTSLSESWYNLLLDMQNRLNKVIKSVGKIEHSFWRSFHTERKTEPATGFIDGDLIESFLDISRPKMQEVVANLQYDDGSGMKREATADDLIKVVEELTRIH
T2 sequence (Q13422 whole entry): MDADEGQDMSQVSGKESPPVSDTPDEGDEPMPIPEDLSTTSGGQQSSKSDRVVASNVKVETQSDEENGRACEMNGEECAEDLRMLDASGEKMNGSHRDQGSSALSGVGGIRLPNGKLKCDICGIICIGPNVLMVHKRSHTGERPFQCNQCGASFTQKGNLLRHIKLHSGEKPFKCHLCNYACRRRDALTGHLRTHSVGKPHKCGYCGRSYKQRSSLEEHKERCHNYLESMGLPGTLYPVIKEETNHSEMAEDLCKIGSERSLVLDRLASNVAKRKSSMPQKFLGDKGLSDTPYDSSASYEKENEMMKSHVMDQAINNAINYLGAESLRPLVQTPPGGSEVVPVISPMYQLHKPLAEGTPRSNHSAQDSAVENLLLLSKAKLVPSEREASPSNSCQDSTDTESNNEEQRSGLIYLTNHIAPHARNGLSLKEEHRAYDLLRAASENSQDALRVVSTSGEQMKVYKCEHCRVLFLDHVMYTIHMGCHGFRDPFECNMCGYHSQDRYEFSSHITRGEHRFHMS
T2 sequence (Q96SW2 whole entry): as the sequence (Q96SW2 whole entry) above
T2 sequence (Q16531 whole entry partner): as the sequence (Q16531 whole entry partner) above
T3 sequence (P48729 whole entry): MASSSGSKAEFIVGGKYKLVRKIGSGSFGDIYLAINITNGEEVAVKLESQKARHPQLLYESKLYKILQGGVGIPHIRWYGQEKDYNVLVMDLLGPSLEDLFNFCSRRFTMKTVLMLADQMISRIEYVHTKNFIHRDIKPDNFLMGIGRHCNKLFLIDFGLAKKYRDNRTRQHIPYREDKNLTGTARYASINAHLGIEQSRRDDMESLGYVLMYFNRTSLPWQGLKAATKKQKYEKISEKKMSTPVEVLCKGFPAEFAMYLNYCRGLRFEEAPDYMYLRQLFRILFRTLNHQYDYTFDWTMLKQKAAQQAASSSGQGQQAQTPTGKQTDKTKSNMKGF
T3 sequence (Q96SW2 whole entry): as the sequence (Q96SW2 whole entry) above
T3 sequence (Q16531 whole entry partner): as the sequence (Q16531 whole entry partner) above
T1 sequence (Q9UKS7 whole entry): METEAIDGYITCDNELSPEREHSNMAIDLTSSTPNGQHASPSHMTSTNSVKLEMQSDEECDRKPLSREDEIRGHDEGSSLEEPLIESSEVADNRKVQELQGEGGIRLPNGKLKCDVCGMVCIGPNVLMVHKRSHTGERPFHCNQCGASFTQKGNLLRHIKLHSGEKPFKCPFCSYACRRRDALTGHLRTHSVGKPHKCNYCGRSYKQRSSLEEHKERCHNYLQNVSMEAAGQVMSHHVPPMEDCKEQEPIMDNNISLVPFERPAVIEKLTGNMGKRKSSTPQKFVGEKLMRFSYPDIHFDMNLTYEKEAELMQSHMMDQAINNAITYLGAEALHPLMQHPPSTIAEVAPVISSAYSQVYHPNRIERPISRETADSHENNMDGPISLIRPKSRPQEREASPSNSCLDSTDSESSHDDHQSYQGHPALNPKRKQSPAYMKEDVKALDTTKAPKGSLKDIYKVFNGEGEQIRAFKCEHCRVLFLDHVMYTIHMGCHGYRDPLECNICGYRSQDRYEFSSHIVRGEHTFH
T1 sequence (Q96SW2 whole entry): as the sequence (Q96SW2 whole entry) above
T1 sequence (Q16531 whole entry partner): as the sequence (Q16531 whole entry partner) above
T4 sequence (P15170 whole entry): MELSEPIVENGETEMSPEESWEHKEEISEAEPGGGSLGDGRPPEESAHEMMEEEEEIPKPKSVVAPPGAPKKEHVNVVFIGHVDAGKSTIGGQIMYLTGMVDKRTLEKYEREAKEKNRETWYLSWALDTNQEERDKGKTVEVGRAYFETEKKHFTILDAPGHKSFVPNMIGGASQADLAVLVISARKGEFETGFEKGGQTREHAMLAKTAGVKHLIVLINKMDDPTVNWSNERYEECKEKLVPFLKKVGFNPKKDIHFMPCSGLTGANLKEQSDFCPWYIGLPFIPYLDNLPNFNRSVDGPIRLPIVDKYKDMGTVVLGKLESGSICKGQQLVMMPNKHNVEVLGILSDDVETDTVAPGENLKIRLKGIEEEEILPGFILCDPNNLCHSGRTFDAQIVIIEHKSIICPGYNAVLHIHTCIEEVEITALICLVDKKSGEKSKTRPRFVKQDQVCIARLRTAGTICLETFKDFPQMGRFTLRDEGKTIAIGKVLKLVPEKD
T4 sequence (Q96SW2 whole entry): as the sequence (Q96SW2 whole entry) above
T4 sequence (Q16531 whole entry partner): as the sequence (Q16531 whole entry partner) above

Structure (SMILES) | IKZF2 substrate protein remaining % (IKZF2) | IKZF1 substrate protein remaining % (IKZF1) | CK1α substrate protein remaining % (CK1α) | GSPT1 substrate protein remaining % (GSPT1) | IKZF3 substrate protein remaining % (IKZF3) | WEE1 substrate protein remaining % (WEE1)
O=C1CCN(N2C(=O)c3ccc(CN4CC5CC(C4)N5c4cccc(Cl)c4Cl)cc3C2=O)C(=O)N1 [GT-07434, 5-((6-(2,3-dichlorophenyl)-3,6-diazabicyclo[3.1.1]heptan-3-yl)methyl)-2-(2,4-dioxotetrahydropyrimidin-1(2H)-yl)isoindoline-1,3-dione] | B (80%< substrate protein remaining % ≤100%) | B (80%< substrate protein remaining % ≤100%) | A (0% ≤ substrate protein remaining % ≤80%) | B (80%< substrate protein remaining % ≤100%) | B (80%< substrate protein remaining % ≤100%) | B (80%< substrate protein remaining % ≤100%)
O=C1CCN(N2Cc3cc(CN4CCN(c5cccc(F)c5)CC4)ccc3C2=O)C(=O)N1 [GT-06701, 1-(5-((4-(3-fluorophenyl)piperazin-1-yl)methyl)-1-oxoisoindolin-2-yl)dihydropyrimidine-2,4(1H,3H)-dione] | B (80%< substrate protein remaining % ≤100%) | B (80%< substrate protein remaining % ≤100%) | A (0% ≤ substrate protein remaining % ≤80%) | A (0% ≤ substrate protein remaining % ≤80%) | B (80%< substrate protein remaining % ≤100%) | B (80%< substrate protein remaining % ≤100%)
O=C1CCN(N2C(=O)c3ccc(CN4CCC(c5cccc6c(F)cccc56)CC4)cc3C2=O)C(=O)N1 [GT-07686, 2-(2,4-dioxotetrahydropyrimidin-1(2H)-yl)-5-((4-(5-fluoronaphthalen-1-yl)piperidin-1-yl)methyl)isoindoline-1,3-dione] | B (80%< substrate protein remaining % ≤100%) | B (80%< substrate protein remaining % ≤100%) | B (80%< substrate protein remaining % ≤100%) | A (0% ≤ substrate protein remaining % ≤80%) | B (80%< substrate protein remaining % ≤100%) | B (80%< substrate protein remaining % ≤100%)
O=C1CCN(N2Cc3cc(CN4CCCN(c5cccc(Cl)c5Cl)CC4)ccc3C2=O)C(=O)N1 [GT-07431, 1-(5-((4-(2,3-dichlorophenyl)-1,4-diazepan-1-yl)methyl)-1-oxoisoindolin-2-yl)dihydropyrimidine-2,4(1H,3H)-dione] | B (80%< substrate protein remaining % ≤100%) | A (0% ≤ substrate protein remaining % ≤80%) | A (0% ≤ substrate protein remaining % ≤80%) | B (80%< substrate protein remaining % ≤100%) | B (80%< substrate protein remaining % ≤100%) | B (80%< substrate protein remaining % ≤100%)
O=C1CCN(N2Cc3cc(CN4CC(c5ccnc6cc(F)ccc56)C4)ccc3C2=O)C(=O)N1 [GT-07711, 1-(5-((3-(7-fluoroquinolin-4-yl)azetidin-1-yl)methyl)-1-oxoisoindolin-2-yl)dihydropyrimidine-2,4(1H,3H)-dione] | A (0% ≤ substrate protein remaining % ≤80%) | A (0% ≤ substrate protein remaining % ≤80%) | A (0% ≤ substrate protein remaining % ≤80%) | A (0% ≤ substrate protein remaining % ≤80%) | A (0% ≤ substrate protein remaining % ≤80%) | B (80%< substrate protein remaining % ≤100%)
O=C1CCN(N2C(=O)c3ccc(CN4CCN(c5c(F)cccc5F)CC4)cc3C2=O)C(=O)N1 [GT-06796, 5-((4-(2,6-difluorophenyl)piperazin-1-yl)methyl)-2-(2,4-dioxotetrahydropyrimidin-1(2H)-yl)isoindoline-1,3-dione] | B (80%< substrate protein remaining % ≤100%) | B (80%< substrate protein remaining % ≤100%) | B (80%< substrate protein remaining % ≤100%) | B (80%< substrate protein remaining % ≤100%) | B (80%< substrate protein remaining % ≤100%) | A (0% ≤ substrate protein remaining % ≤80%)
O=C1CCN(N2Cc3cc(CN4C[C@@H]5C[C@H]4CN5C(c4ccccc4)c4ccccc4)ccc3C2=O)C(=O)N1 [GT-04938, 1-(5-(((1S,4S)-5-benzhydryl-2,5-diazabicyclo[2.2.1]heptan-2-yl)methyl)-1-oxoisoindolin-2-yl)dihydropyrimidine-2,4(1H,3H)-dione] | A (0% ≤ substrate protein remaining % ≤80%) | B (80%< substrate protein remaining % ≤100%) | B (80%< substrate protein remaining % ≤100%) | A (0% ≤ substrate protein remaining % ≤80%) | B (80%< substrate protein remaining % ≤100%) | A (0% ≤ substrate protein remaining % ≤80%)
O=C1CCN(N2Cc3cc(CN4CCC(N5CCOc6cc(F)ccc65)CC4)ccc3C2=O)C(=O)N1 [GT-07585, 1-(5-((4-(7-fluoro-2,3-dihydro-4H-benzo[b][1,4]oxazin-4-yl)piperidin-1-yl)methyl)-1-oxoisoindolin-2-yl)dihydropyrimidine-2,4(1H,3H)-dione] | B (80%< substrate protein remaining % ≤100%) | A (0% ≤ substrate protein remaining % ≤80%) | B (80%< substrate protein remaining % ≤100%) | A (0% ≤ substrate protein remaining % ≤80%) | B (80%< substrate protein remaining % ≤100%) | A (0% ≤ substrate protein remaining % ≤80%)
Cc1cscc1C1=CCN(Cc2ccc3c(c2)C(=O)N(N2CCC(=O)NC2=O)C3=O)CC1 [GT-05316, 2-(2,4-dioxotetrahydropyrimidin-1(2H)-yl)-5-((4-(4-methylthiophen-3-yl)-3,6-dihydropyridin-1(2H)-yl)methyl)isoindoline-1,3-dione] | B (80%< substrate protein remaining % ≤100%) | B (80%< substrate protein remaining % ≤100%) | B (80%< substrate protein remaining % ≤100%) | A (0% ≤ substrate protein remaining % ≤80%) | B (80%< substrate protein remaining % ≤100%) | B (80%< substrate protein remaining % ≤100%)
O=C1CCN(N2C(=O)c3ccc(CN4CCN(c5ccnc(Cl)c5F)CC4)cc3C2=O)C(=O)N1 [GT-07166, 5-((4-(2-chloro-3-fluoropyridin-4-yl)piperazin-1-yl)methyl)-2-(2,4-dioxotetrahydropyrimidin-1(2H)-yl)isoindoline-1,3-dione] | A (0% ≤ substrate protein remaining % ≤80%) | B (80%< substrate protein remaining % ≤100%) | B (80%< substrate protein remaining % ≤100%) | A (0% ≤ substrate protein remaining % ≤80%) | B (80%< substrate protein remaining % ≤100%) | B (80%< substrate protein remaining % ≤100%)
O=C1CCN(N2Cc3cc(CN4CCC(c5ccnc(F)c5F)CC4)ccc3C2=O)C(=O)N1 [GT-06396, 1-(5-((4-(2,3-difluoropyridin-4-yl)piperidin-1-yl)methyl)-1-oxoisoindolin-2-yl)dihydropyrimidine-2,4(1H,3H)-dione] | B (80%< substrate protein remaining % ≤100%) | B (80%< substrate protein remaining % ≤100%) | A (0% ≤ substrate protein remaining % ≤80%) | B (80%< substrate protein remaining % ≤100%) | B (80%< substrate protein remaining % ≤100%) | B (80%< substrate protein remaining % ≤100%)
O=C1CCN(N2Cc3cc(CN4CCC(c5noc6ccccc56)CC4)ccc3C2=O)C(=O)N1 [GT-07642, 1-(5-((4-(benzo[d]isoxazol-3-yl)piperidin-1-yl)methyl)-1-oxoisoindolin-2-yl)dihydropyrimidine-2,4(1H,3H)-dione] | B (80%< substrate protein remaining % ≤100%) | B (80%< substrate protein remaining % ≤100%) | B (80%< substrate protein remaining % ≤100%) | A (0% ≤ substrate protein remaining % ≤80%) | B (80%< substrate protein remaining % ≤100%) | B (80%< substrate protein remaining % ≤100%)
